# Results as given in patent US20200171001A1, “COMBINATION THERAPY WITH 2,3-DIHYDRO-ISOINDOLE-1-ONE COMPOUNDS AND METHODS FOR TREATING PATIENTS WITH VARIOUS MUTATIONS” (Aptose Biosciences Inc., priority 2018, published 2020).
# How the values were obtained:
# [1] = test system: B-cell malignant cell lines (e.g. AML cell lines); assay: Potency against B-cell malignant cell lines compared with conventional IDH1 therapeutic agents; assay type: cell-based
# [2] = test system: malignant bone marrow or peripheral blood cells from AML patients; assay: Ex vivo drug sensitivity (MTS cell viability, IC50 and AUC) on freshly isolated primary AML patient samples, association with somatic mutations; assay type: cell-based, human; conditions: for Sensitivity of patient samples with FLT3-ITD mutations as compared to wild-type: AML patient samples with FLT3-ITD mutations vs WT, n=118 patients; for Sensitivity of patient samples with FLT3-ITD mutations as compared to wild-type / Sensitivity of patient samples with IDH1 mutants relative to WT: FIG. 1, FIG. 2; for Sensitivity of patient samples with IDH1 mutants relative to WT: AML patient samples with IDH1 mutations vs WT; for Effectiveness (AUC of drug sensitivity) against ASXL1 mutant cells compared with wild type: ASXL1 mutant vs wild type AML cells, FIG. 5; for Effectiveness (AUC of drug sensitivity) against SRSF2 mutant cells compared with wild type: SRSF2 mutant vs wild type AML cells
# Method: For Genomics Analysis examples 2-4 below, studies were performed according to published procedures [Tyner, J. W., Tognon, C. E., Bottomly, D. et al. Functional genomic landscape of acute myeloid leukaemia. Nature 562, 526-531 (2018) doi:10.1038/s41586-018-0623-z; Kurtz, S. E., Eide, C. […] PNAS Sep. 5, 2017 114 (36) 7554-7563], which are incorporated by reference in their entirety herein.
# All patient samples were analyzed for clinical characteristics and drug sensitivity. AML, CLL, ALL and MDS/MPN and other patient samples were analyzed with respect to expanded, disease-specific panels of clinical, prognostic, genetic, cytogenetic, and surface antigen characteristics obtained from patient electronic medical records. Genetic characterization of AML samples included results of a clinical deep-sequencing panel of genes commonly mutated in hematologic malignancies (GeneTrails panel from Knight Diagnostic Laboratories, OHSU; Foundation Medicine reports from UT Southwestern).
# Compound 7 and/or venetoclax were prepared in a well in a seven-point concentration series. Similar plates were prepared with the 48 indicated pairwise inhibitor combinations in seven-point fixed molar concentration series identical to those used for single agents. The final concentration of DMSO was ≤0.1% in all wells, and all sets of single-agent and combination destination plates were stored at −20° C. and thawed immediately before use. Primary mononuclear cells were plated across single-agent and combination inhibitor panels within 24 h of collection. Cells were seeded into assay plates at 10,000 cells per well in RPMI 1640 media supplemented with FBS (10%), L-glutamine, penicillin/streptomycin, and β-mercaptoethanol (10^−4 M). After 3 d of culture at 37° C. in 5% CO2, MTS reagent (CellTiter96 AQueous One; Promega) was added, optical density was measured at 490 nm, and raw absorbance values were adjusted to a reference blank value and then used to determine cell viability (normalized to untreated control wells).
# Normalized viability values at each dose of a seven-point dilution series for Compound 7, venetoclax or combinations of the two compounds were analyzed for each of numerous primary leukemia samples. Dose concentrations were log 10-transformed, and a probit regression curve was fit to each seven-point drug sensitivity profile by using maximum-likelihood estimation for the intercept and slope. This parametric model was chosen over a polynomial because the probit's monotonic shape reflects a dose-response curve typically seen in samples incubated with cytotoxic or inhibitory agents. Normalized viability values greater than 100%, indicating higher cell viability than the average viability across control wells on a given plate, were truncated to 100% to produce a percentage response variable amenable to probit modeling. From the fitted probit curve for each sample/drug pairing, the IC50 was defined as the lowest concentration to achieve 50% predicted viability and the AUC was computed by integration of the curve height across the tested dose range. If the predicted cell viability (i.e., probit curve height) was ≤50% at the lowest tested dose or >50% across the entire dose range, the IC50 was designated as the lowest dose or highest dose, respectively. For sensitivity profiles with 100% normalized viability at all seven dose points, the IC50 and AUC were designated as the highest tested dose and the maximum possible AUC, respectively. For sensitivity profiles with 0% viability at all seven dose points, the IC50 and AUC were designated as the lowest tested dose and a value (0.5) just below the minimum probit-derived AUC, respectively.
# Genomics analysis of Compound 7 was performed by testing the association of somatic mutations and expression data with Compound 7 response on freshly harvested malignant bone marrow or peripheral blood cells from AML patients. […]
SMILES,"Potency relative to conventional IDH1 therapeutic agents (e.g., Tibsovo) [1]",Sensitivity of patient samples with FLT3-ITD mutations as compared to wild-type [2],Sensitivity of patient samples with FLT3-ITD mutations as compared to wild-type ([2]; listed as compound 7),"Sensitivity of patient samples with IDH1 R132 residue mutants relative to WT ([2]; AML patient samples with IDH1 R132 residue mutants (n=6), on average, vs WT)",Sensitivity of patient samples with IDH1 mutants relative to WT [2],Sensitivity of patient samples with IDH1 mutants relative to WT ([2]; listed as compound 7),Effectiveness (AUC of drug sensitivity) against ASXL1 mutant cells compared with wild type ([2]; 72-hour culture),"Effectiveness (AUC of drug sensitivity) in AML cells with IDH mutations compared to IDH wild type ([2]; IDH mutant vs IDH wild type AML cells, 72-hour culture, FIG. 4)","Effectiveness (AUC of drug sensitivity) against SRSF2 mutant cells compared with wild type ([2]; 72-hour culture, FIG. 4)","Effectiveness (AUC of drug sensitivity) in AML cells with TP53 mutations ([2]; TP53 mutant vs TP53 wild type AML cells, 72-hour culture, FIG. 3)","IC50 towards killing cells in AML patient bone marrow samples with IDH1 mutations ([2]; all patient samples with IDH1 mutations, FIG. 2)"
"Cc1cnc(-c2ccc(-c3ccc(NC(=O)Nc4c(F)cc(F)cc4F)cc3F)c3c2C(=O)NC3)[nH]1 [Compound 7, 1-{3-fluoro-4-[7-(5-methyl-1H-imidazol-2-yl)-1-oxo-2,3-dihydro-1H-isoindol-4-yl]-phenyl}-3-(2,4,6-trifluorophenyl)urea]",more potent,highly sensitive,more sensitive,significantly greater sensitivity,highly sensitive,greater sensitivity,just as effective,substantially more effective,just as effective,retains effectiveness,particular low
"CC1(COc2ccc3c(c2)ncn3-c2ccc3cccc(N4CCC(N)CC4)c3n2)COC1 [crenolanib, reference compound]",–,–,–,–,–,–,appear resistant,–,appear resistant,–,–
